Values joined by “and” are separate entries in the source; they are usually repeats but may differ in a detail not shown here. Equal entries are not always repeated. Where two headings read alike, the source gives them in different places. Starred links: 1 amine or outer side, 2 acyl side, 3 side chain; linkers in the order of their positions; H or OH if unused. Non-standard residues stand in square brackets, D forms with d. Residues, ends and D or L forms follow the SMILES beside them. azaβ3(1Nal) = O=C(CN(Cc1cccc2ccccc12)N[*:1])[*:2]
What was measured:
P. aeruginosa LESB58 = conditions: LESB58
Protocol: (10−4 M final concentrations). At selected time intervals, 100 μl of reaction mixture was collected, quenched by 200 μl 95% EtOH, and adjusted at pH 2 to prevent peptide adsorption to serum proteins. […] Supernatants were analyzed by RP-HPLC on an Xbridge C18 column with a linear gradient of water, 0.08% TFA, and acetonitrile with 1% TFA. HPLC peak areas were used to calculate the percentages of intact compound remaining at the various time points. MIC and MBC values were determined in triplicate in many ESKAPE clinical isolates, including a dozen MDR S. aureus, by the broth microdilution method. Peptidomimetics and antibiotics were assayed in a concentration range of 1 to 128 μM. […] After every hour of culture for 4 h, serial dilutions were plated on BHI plates and incubated overnight at 37°C, and then the CFUs were counted and expressed as log CFU/ml. […]
For 15 d in MHB, MICs were determined daily for each pseudopeptide and their antibiotic controls. […] The suspension was diluted in MHB or CAMHB (10^6 cells/ml) and then used to determine the MIC of the same compound determined by micro broth dilution. […] To control compound stability, peptide solution MICs were determined during and at the end of the 15 d and were compared to cells unexposed to antibiotics. In vivo resistance was also assessed in treated mice (1.5 mg.kg^−1) for 4 d (sepsis) or 6 d (skin abscesses). […]

[1] = design: species or system mice; conditions: mouse, in vivo, iv
Protocol: Control embryos were injected with 1 nl of water. […] Each animal was checked for mortality twice per day. […] RBCs were washed until the supernatant was clear. […] RBCs in PBS were a negative control without hemolysis.
Supplementary file pbio.3000337.s011.docx: S5 Table Mice toxicity assays. Clinical signs observed on Day 1 after IV administration of each of the peptide and pseudopeptides in sets of 3 mice. Not observed symptoms are marked with a dash. (DOCX) Click here for additional data file.

MRSA = assay: Severe sepsis mouse model, survival; assay type: in vivo; conditions: mice, approximately 2 × 10^9 CFUs MRSA IV; 4 IV doses of 0.5 mg.kg^−1 at 2, 24, 48, 72 h
Description: Tolerance and toxicity studies were done on male Swiss mice (CD-1 Crl: CD-1 [ICR] IGS; Charles River). These were 7 to 10 weeks old and weighed an average of 37.2 g. All experimental protocols were approved by the Adaptive Therapeutics Animal Care and Use Committee (APAFiS #4508-2016031l15541258 v2). For the sepsis model, we used female Swiss mice (Janvier Labs), 6 to 8 weeks old and weighing approximately 30 g. Experiments were monitored in the ARCHE-BIOSIT animal lab in Rennes, in biological duplicate. We used Groups of 5 mice for the mild and the severe sepsis models with MRSA. Mice were IV inoculated with 150 μl of MRSA suspensions in 0.9% NaCl containing approximately 5 × 10^8 CFUs for the “mild” sepsis and approximately 2 × 10^9 CFUs for the “severe” sepsis, respectively. […] Mice survival was monitored for 4 d (“severe” sepsis) or 14 d (“mild” sepsis), and the statistical significance of difference(s) between the groups was evaluated using the Wilcoxon test. P < 0.05 was considered significant. Two weeks (“mild” sepsis) or 4 d (“severe” sepsis) after inoculation, mice were euthanized with CO2.

S. aureus MRSA = assay: Cutaneous abscess mouse model (lesion size, CFU); assay type: in vivo, mice
Protocol: (§1) For the cutaneous abscess model, the mice were randomly divided into 5 sets. The mice were anesthetized with isoflurane, their dorsal fur shaved, and their skin disinfected with 70% ethanol. An overnight culture of S. aureus MRSA or P. aeruginosa LESB58 was washed with 0.9% NaCl, and then a subcutaneous injection of 2 × 10^9 CFUs and an equal amount of sterile Cytodex microcarrier beads (20 mg.ml^−1, Sigma) for S. aureus MRSA, or 10^8 CFUs for P. aeruginosa were injected into the shaved area. […] Mice were monitored every day and then euthanized with CO2 on Day 6 or on Day 3. Abscesses were excised, measured, and homogenized in PBS using an Ultra-Turax. Serial dilutions of the samples were plated on BHI (MRSA) or 2YT medium (LESB58) plates and then incubated overnight at 37°C. Afterward, the CFUs were counted and expressed as log CFU/ml. Dermonecrosis areas were calculated according to the formula π × L × W. ATP levels were determined with an ATP assay kit (Promega) according to manufacturer instructions on sets of 5 colonies harboring the SCV phenotype, and sets of 5 colonies harboring a normal phenotype, after growth on BHI plates.

S. aureus = assay: Intracellular ATP levels of SCV versus normal colonies from skin abscesses; assay type: cell-based; conditions: individual values
Protocol: as §1

[2] = mice, MRSA subcutaneous, single IV 1.5 mg.kg^−1 at 24 h, 6 days post infection

## CC(C)[C@@H]1NC(=O)[C@H](CCCNC(=N)N)NC(=O)[C@H](CCCNC(=N)N)NC(=O)CN(Cc2cccc3ccccc23)NC(=O)[C@H](Cc2ccccc2)NC(=O)CN(Cc2cccc3ccccc23)NC(=O)[C@H](CCCCN)NC1=O [Pep19] (cyclo([azaβ3(1Nal)]F[azaβ3(1Nal)]RRVK))
P. aeruginosa LESB58
  MIC: 4 µM
[1]
  Abdominal breathing, mice with sign: -
  Half-closed eyes, mice with sign: -
  Hindlimbs widespread, mice with sign: 1
  Piloerection, mice with sign: 3
[1]; 2 mg/kg
  Abdominal breathing, mice with sign: -
  Decreased grasping reflex, mice with sign: -
  Dyspnea, mice with sign: -
  Half-closed eyes, mice with sign: -
  Hunched posture, mice with sign: 1
  Hypoactivity, mice with sign: 1
  Hypotonia, mice with sign: -
  Piloerection, mice with sign: 3
  Red-colored ears, mice with sign: -
  Red-colored eyes, mice with sign: -
  Staggering gait, mice with sign: 1
  Sudden startle, mice with sign: -
[1]; […]
  Decreased grasping reflex, mice with sign: -
  Half-closed eyes, mice with sign: -
  Hypotonia, mice with sign: -
  Piloerection, mice with sign: 3
  Red-colored ears, mice with sign: -
  Red-colored eyes, mice with sign: -
MRSA
  Survival in severe sepsis: protected the infected animals
S. aureus MRSA; cutaneous abscesses from MRSA in mice, IV 24 h post-infection, 1.5 mg.kg-1, SCV, individual values
  CFU counts per abscess, SCV: 5.62 log Cfu/ml and 5.85 log Cfu/ml and 5.73 log Cfu/ml and 5.93 log Cfu/ml and 5.11 log Cfu/ml and 4.73 log Cfu/ml and 4.55 log Cfu/ml and 5.5 log Cfu/ml and 5.67 log Cfu/ml
S. aureus MRSA; cutaneous abscesses from MRSA in mice, IV 24 h post-infection, 1.5 mg.kg-1, individual values
  Area of dermonecrosis: 165.8 mm2 and 78.8 mm2 and 98.9 mm2 and 174.7 mm2 and 106.7 mm2 and 160.2 mm2 and 96.4 mm2 and 106.4 mm2 and 176.2 mm2
S. aureus MRSA; [2]
  Bacterial content of skin abscess: strong reduction
  Skin abscess volume: strong reduction
S. aureus; 'normal growing' colonies from MRSA abscesses of mice treated IV with 1.5 mg.kg-1
  Intracellular ATP level, 'normal growing': 128624 AU and 143636 AU and 122235 AU and 111054 AU and 122356 AU
S. aureus; SCV from MRSA abscesses of mice treated IV with 1.5 mg.kg-1
  Intracellular ATP level, SCV: 21955.1 AU and 16114.9 AU and 17911.8 AU and 16800 AU and 28088.5 AU
